The target of this test is T1, GST-RIPK1 (recombinant GST-RIPK1 kinase domain (residues 1-327)) (Homo sapiens, UniProt Q13546).
T1 construct: recombinant GST-RIPK1 kinase domain (residues 1-327) enzyme produced from baculovirus-transfected Sf21 cells; host or cells: baculovirus-transfected Sf21 insect cells
T1 sequence (Q13546 1-327): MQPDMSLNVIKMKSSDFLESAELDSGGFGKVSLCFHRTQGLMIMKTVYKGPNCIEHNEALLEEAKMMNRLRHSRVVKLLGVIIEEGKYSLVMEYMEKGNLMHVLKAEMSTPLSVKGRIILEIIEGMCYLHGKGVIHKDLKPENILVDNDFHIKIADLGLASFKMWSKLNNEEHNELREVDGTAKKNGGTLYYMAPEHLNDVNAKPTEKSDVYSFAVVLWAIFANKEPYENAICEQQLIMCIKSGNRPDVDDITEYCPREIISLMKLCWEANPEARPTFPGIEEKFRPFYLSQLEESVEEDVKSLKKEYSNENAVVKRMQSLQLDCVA
The test is described as follows: RIPK1-ADP-Glo Enzymatic Assay. It is filed as biochemical. The conditions noted are these: ten-point titration, top compound concentration of 100000 nM; 25 nM GST-RIPK1, 300 μM ATP, 3 μM dephosphorylated-MBP; 30 min pre-incubation, 150 min reaction. The gist of the method:
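ADP-Glo luminescence quantifies ADP formed over 150 minutes by 25 nM Sf21-produced GST-RIPK1 (1-327) using 300 μM ATP and 3 μM dephosphorylated MBP, following 30-minute compound preincubation at 1% DMSO. Ten-point 1:3 series from 100000 nM gave EC50 via four-parameter sigmoidal regression.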

pEC50: −log10 of the molar value.

The pEC50 is the EC50 on a negative log10 scale, so that one unit is a factor of ten. Regarding `O=C1N2[C@@H](CC[C@H]2c2cc(F)cc(F)c2)O[C@]12C[C@H](Oc1cc(-n3cccn3)ncn1)C2` [Example 9.6, (5′S,7a′R)-5′-(3,5-difluorophenyl)-3-{[6-(1H-pyrazol-1-yl)pyrimidin-4-yl]oxy}tetrahydro-3′H-spiro[cyclobutane-1,2′-pyrrolo[2,1-b][1,3]oxazol]-3′-one], the pEC50 was 7.92.
As for `Cc1nc2c(OC3CC4(C3)O[C@@H]3CC[C@@H](c5cc(F)cc(F)c5)N3C4=O)ncnc2s1` (stereo partly drawn) [Example 9.7, (5′S,7a′R)-5′-(3,5-difluorophenyl)-3-[(2-methyl[1,3]thiazolo[5,4-d]pyrimidin-7-yl)oxy]tetrahydro-3′H-spiro[cyclobutane-1,2′-pyrrolo[2,1-b][1,3]oxazol]-3′-one], the pEC50 is 6.70.
In the case of `O=C1N2[C@@H](CC[C@H]2c2cc(F)cc(F)c2)OC12CC(Oc1cc(-n3cccn3)ncn1)C2` (stereo partly drawn) [Example 9.8, (5′S,7a′R)-5′-(3,5-difluorophenyl)-3-{[6-(1H-pyrazol-1-yl)pyrimidin-4-yl]oxy}tetrahydro-3′H-spiro[cyclobutane-1,2′-pyrrolo[2,1-b][1,3]oxazol]-3′-one], the pEC50 is 7.62.
The same measure for `O=C1N2[C@@H](CC[C@H]2c2cc(F)cc(F)c2)O[C@]12C[C@@H](Oc1cc(F)ncn1)C2` [Example 9.10, (1s,3S,5′S,7a′R)-5′-(3,5-difluorophenyl)-3-((6-fluoropyrimidin-4-yl)oxy)tetrahydro-3′H-spiro[cyclobutane-1,2′-pyrrolo[2,1-b]oxazol]-3′-one]: 7.46.
On to `Cc1cn(-c2cc(OC3CC4(C3)O[C@@H]3CC[C@@H](c5cc(F)cc(F)c5)N3C4=O)ncn2)cn1` (stereo partly drawn) [Example 9.11, (5′S,7a′R)-5′-(3,5-difluorophenyl)-3-{[6-(4-methyl-1H-imidazol-1-yl)pyrimidin-4-yl]oxy}tetrahydro-3′H-spiro[cyclobutane-1,2′-pyrrolo[2,1-b][1,3]oxazol]-3′-one], for which the pEC50 is 7.68.
Turning to `N#Cc1cc(O[C@H]2C[C@]3(C2)O[C@@H]2CC[C@@H](c4cc(F)cc(F)c4)N2C3=O)ncn1` [Example 9.12, 6-(((1s,3S,5′S,7a′R)-5′-(3,5-difluorophenyl)-3′-oxotetrahydro-3′H-spiro[cyclobutane-1,2′-pyrrolo[2,1-b]oxazol]-3-yl)oxy)pyrimidine-4-carbonitrile], the pEC50 is 6.35.
On to `O=C1N2[C@@H](CC[C@H]2c2cc(F)cc(F)c2)O[C@]12C[C@@H](Oc1cc(Cl)ncn1)C2` [Example 9.13, (1s,3S,5′S,7a′R)-3-((6-chloropyrimidin-4-yl)oxy)-5′-(3,5-difluorophenyl)tetrahydro-3′H-spiro[cyclobutane-1,2′-pyrrolo[2,1-b]oxazol]-3′-one], for which the pEC50 is 6.97.
Regarding `N#Cc1ncccc1O[C@H]1C[C@@]2(C1)O[C@@H]1CC[C@@H](c3ccccc3)N1C2=O` [Example 9.14, 3-{[(1r,3R,5′S,7a′R)-3′-oxo-5′-phenyltetrahydro-3′H-spiro[cyclobutane-1,2′-pyrrolo[2,1-b][1,3]oxazol]-3-yl]oxy}pyridine-2-carbonitrile], the pEC50 was 6.86.
The same measure for `N#Cc1cncc(O[C@H]2C[C@@]3(C2)O[C@@H]2CC[C@@H](c4ccccc4)N2C3=O)n1` [Example 9.16, 6-{[(1r,3R,5′S,7a′R)-3′-oxo-5′-phenyltetrahydro-3′H-spiro[cyclobutane-1,2′-pyrrolo[2,1-b][1,3]oxazol]-3-yl]oxy}pyrazine-2-carbonitrile]: 7.11; for `N#Cc1cc(O[C@H]2C[C@@]3(C2)O[C@@H]2CC[C@@H](c4ccccc4)N2C3=O)ncn1` [Example 9.17, 6-{[(1r,3R,5′S,7a′R)-3′-oxo-5′-phenyltetrahydro-3′H-spiro[cyclobutane-1,2′-pyrrolo[2,1-b][1,3]oxazol]-3-yl]oxy}pyrimidine-4-carbonitrile]: 7.74.
The value for `N#Cc1ccnc(O[C@H]2C[C@@]3(C2)O[C@@H]2CC[C@@H](c4ccccc4)N2C3=O)n1` [Example 9.19, 2-{[(1r,3R,5′S,7a′R)-3′-oxo-5′-phenyltetrahydro-3′H-spiro[cyclobutane-1,2′-pyrrolo[2,1-b][1,3]oxazol]-3-yl]oxy}pyrimidine-4-carbonitrile] was 7.19; that for `N#Cc1ccnc(O[C@H]2C[C@@]3(C2)O[C@@H]2CC[C@@H](c4cc(F)cc(F)c4)N2C3=O)n1` [Example 9.20, 2-{[(1r,3R,5′S,7a′R)-5′-(3,5-difluorophenyl)-3′-oxotetrahydro-3′H-spiro[cyclobutane-1,2′-pyrrolo[2,1-b][1,3]oxazol]-3-yl]oxy}pyrimidine-4-carbonitrile] was 7.28; that for `O=C1N2[C@@H](CC[C@H]2c2cc(F)cc(F)c2)O[C@]12C[C@H](Oc1nccc3nccn13)C2` [Example 9.21, (1r,3R,5′S,7a′R)-5′-(3,5-difluorophenyl)-3-[(imidazo[1,2-c]pyrimidin-5-yl)oxy]tetrahydro-3′H-spiro[cyclobutane-1,2′-pyrrolo[2,1-b][1,3]oxazol]-3′-one] was 7.85.
The value for `O=C1N2[C@@H](CC[C@H]2c2cc(F)cc(F)c2)O[C@]12C[C@H](Oc1ncnn3cccc13)C2` [Example 9.22, (1r,3R,5′S,7a′R)-5′-(3,5-difluorophenyl)-3-[(pyrrolo[2,1-f][1,2,4]triazin-4-yl)oxy]tetrahydro-3′H-spiro[cyclobutane-1,2′-pyrrolo[2,1-b][1,3]oxazol]-3′-one] was 7.96; that for `O=C1N2[C@@H](CC[C@H]2c2cc(F)cc(F)c2)O[C@]12C[C@H](Oc1nccc3ncnn13)C2` [Example 9.23, (1r,3R,5′S,7a′R)-5′-(3,5-difluorophenyl)-3-[([1,2,4]triazolo[1,5-c]pyrimidin-5-yl)oxy]tetrahydro-3′H-spiro[cyclobutane-1,2′-pyrrolo[2,1-b][1,3]oxazol]-3′-one] was 7.26; that for `O=C1N2[C@@H](CC[C@H]2c2ccccc2)O[C@]12C[C@H](Oc1ncnn3cccc13)C2` [Example 9.24, (1r,3R,5′S,7a′R)-5′-phenyl-3-[(pyrrolo[2,1-f][1,2,4]triazin-4-yl)oxy]tetrahydro-3′H-spiro[cyclobutane-1,2′-pyrrolo[2,1-b][1,3]oxazol]-3′-one] was 7.96.
In the case of `O=C1N2[C@@H](CC[C@H]2c2cc(F)cc(F)c2)O[C@]12C[C@H](Oc1cccn3nnnc13)C2` [Example 9.25, (1r,3R,5′S,7a′R)-5′-(3,5-difluorophenyl)-3-[(tetrazolo[1,5-a]pyridin-8-yl)oxy]tetrahydro-3′H-spiro[cyclobutane-1,2′-pyrrolo[2,1-b][1,3]oxazol]-3′-one], the pEC50 is 6.68.
`O=C1N2[C@@H](CC[C@H]2c2cc(F)cc(F)c2)O[C@]12C[C@H](Oc1cccc3ncnn13)C2` [Example 9.26, (1r,3R,5′S,7a′R)-5′-(3,5-difluorophenyl)-3-[([1,2,4]triazolo[1,5-a]pyridin-5-yl)oxy]tetrahydro-3′H-spiro[cyclobutane-1,2′-pyrrolo[2,1-b][1,3]oxazol]-3′-one]: the pEC50 was 6.56.
As to `O=C1N2[C@@H](CC[C@H]2c2ccc(F)cc2)O[C@]12C[C@H](Oc1ncnn3cccc13)C2` [Example 9.27, (1r,3R,5′S,7a′R)-5′-(4-fluorophenyl)-3-[(pyrrolo[2,1-f][1,2,4]triazin-4-yl)oxy]tetrahydro-3′H-spiro[cyclobutane-1,2′-pyrrolo[2,1-b][1,3]oxazol]-3′-one], the pEC50 was 7.92.
With `N#Cc1ccnc(O[C@H]2C[C@@]3(C2)O[C@@H]2CC[C@@H](c4ccc(F)cc4)N2C3=O)c1` [Example 9.28, 2-{[(1r,3R,5′S,7a′R)-5′-(4-fluorophenyl)-3′-oxotetrahydro-3′H-spiro[cyclobutane-1,2′-pyrrolo[2,1-b][1,3]oxazol]-3-yl]oxy}pyridine-4-carbonitrile], the pEC50 is 7.80.
The value for `Cc1nc(O[C@H]2C[C@@]3(C2)O[C@@H]2CC[C@@H](c4cc(F)cc(F)c4)N2C3=O)c2cccn2n1` [Example 9.29, (1r,3R,5′S,7a′R)-5′-(3,5-difluorophenyl)-3-[(2-methylpyrrolo[2,1-f][1,2,4]triazin-4-yl)oxy]tetrahydro-3′H-spiro[cyclobutane-1,2′-pyrrolo[2,1-b][1,3]oxazol]-3′-one] was 7.33; that for `O=C1N2[C@@H](CC[C@H]2c2cc(F)cc(F)c2)O[C@]12C[C@H](Oc1ncnc3sccc13)C2` [Example 9.30, (1r,3R,5′S,7a′R)-5′-(3,5-difluorophenyl)-3-[(thieno[2,3-d]pyrimidin-4-yl)oxy]tetrahydro-3′H-spiro[cyclobutane-1,2′-pyrrolo[2,1-b][1,3]oxazol]-3′-one] was 8.05; that for `O=C1N2[C@@H](CC[C@H]2c2cc(F)cc(F)c2)O[C@]12C[C@H](Oc1ncnc3occc13)C2` [Example 9.31, (1r,3R,5′S,7a′R)-5′-(3,5-difluorophenyl)-3-[(furo[2,3-d]pyrimidin-4-yl)oxy]tetrahydro-3′H-spiro[cyclobutane-1,2′-pyrrolo[2,1-b][1,3]oxazol]-3′-one] was 8.05.
